According to patent US7462741B2, “Naphthalene compounds” (Les Laboratoires Servier, priority 2006, dated 2008):

Tests used:
[1] = target: MT1 receptor (Homo sapiens, UniProt P48039); test: Melatonin MT1 receptor binding study; settings: 2-[125I]-iodomelatonin radioligand, competitive binding in triplicate
Procedure: (§1) The MT1 or MT2 receptor binding experiments are carried out using 2-[^125I]-iodomelatonin as reference radioligand. The radioactivity retained is determined using a liquid scintillation counter.
(§2) Competitive binding experiments are then carried out in triplicate using the various test compounds. A range of different concentrations is tested for each compound. The results enable the binding affinities of the compounds tested (Ki) to be determined.

[2] = target: T1, MT2 receptor (Homo sapiens, UniProt P49286); test: Melatonin MT2 receptor binding study; settings: 2-[125I]-iodomelatonin radioligand, competitive binding in triplicate
T1 sequence (P49286 1-362): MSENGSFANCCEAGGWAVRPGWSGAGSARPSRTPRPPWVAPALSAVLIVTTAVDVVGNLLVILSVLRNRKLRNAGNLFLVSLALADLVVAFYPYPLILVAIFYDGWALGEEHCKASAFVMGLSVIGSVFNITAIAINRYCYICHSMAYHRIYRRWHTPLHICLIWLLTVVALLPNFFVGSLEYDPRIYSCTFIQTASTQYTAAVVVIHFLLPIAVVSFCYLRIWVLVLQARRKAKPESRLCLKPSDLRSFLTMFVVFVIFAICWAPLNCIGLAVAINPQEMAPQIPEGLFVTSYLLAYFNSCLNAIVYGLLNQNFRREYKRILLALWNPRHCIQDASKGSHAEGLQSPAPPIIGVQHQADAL
Procedure: as §1, §2

Chain of MT1 receptor (P48039 whole entry): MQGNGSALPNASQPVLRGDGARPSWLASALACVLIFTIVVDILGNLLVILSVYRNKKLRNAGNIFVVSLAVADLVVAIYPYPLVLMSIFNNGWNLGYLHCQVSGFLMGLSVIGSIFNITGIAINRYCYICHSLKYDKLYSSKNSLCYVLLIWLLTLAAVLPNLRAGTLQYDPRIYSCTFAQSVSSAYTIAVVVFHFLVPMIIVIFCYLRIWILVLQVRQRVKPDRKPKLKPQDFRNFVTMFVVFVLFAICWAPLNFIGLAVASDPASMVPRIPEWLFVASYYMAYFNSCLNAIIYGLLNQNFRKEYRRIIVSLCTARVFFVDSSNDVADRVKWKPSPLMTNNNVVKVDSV

Compound `CCC(=O)NCC(CO)c1cccc2ccc(OC)cc12` (centres unmarked) [Example 1, N-[3-Hydroxy-2-(7-methoxy-1-naphthyl)propyl]propanamide] has a Ki [1] of 1.4 nM and a Ki [2] of 3.2 nM.
